Measurements reported in BindingDB's records for patent US20250042850 (Athos Therapeutics, 2025).

Key:
Assay in all cases: Cytochrome P450 Inhibition of VNN1 Inhibitors
Cytochrome P450 2C19 = Cytochrome P450 2C19 (Homo sapiens, UniProt P33261)
Protocol: (§1) Table 3 and 4: The cocktail was incubated in human liver microsome with NADPH regenerating system (NRS) in a shaking bath at 37±2° C. The formation of specific metabolites was monitored by LC/MS/MS. Test compound was added to the cocktail-liver microsome mixture at varying concentrations and its effect on cytochrome P450 activity was determined by analyzing the rate of specific metabolite formation. The percent inhibition was calculated and plotted with reference to the concentration, and the IC50 value for inhibition was derived by fitting the data with a standard sigmoidal dose-response equation via MLA “Quest Graph™ ED50 Calculator.” AAT Bioquest, Inc, 17 Sep. 2020, aatbio.com/tools/ed50-calculator. […] The reliability of the inhibition assay was established by confirming the inhibition of known inhibitors on different P450 enzymes.

Cytochrome P450 1A2 = target: T1, Cytochrome P450 1A2 (Homo sapiens, UniProt P05177)
T1 sequence (P05177 whole entry): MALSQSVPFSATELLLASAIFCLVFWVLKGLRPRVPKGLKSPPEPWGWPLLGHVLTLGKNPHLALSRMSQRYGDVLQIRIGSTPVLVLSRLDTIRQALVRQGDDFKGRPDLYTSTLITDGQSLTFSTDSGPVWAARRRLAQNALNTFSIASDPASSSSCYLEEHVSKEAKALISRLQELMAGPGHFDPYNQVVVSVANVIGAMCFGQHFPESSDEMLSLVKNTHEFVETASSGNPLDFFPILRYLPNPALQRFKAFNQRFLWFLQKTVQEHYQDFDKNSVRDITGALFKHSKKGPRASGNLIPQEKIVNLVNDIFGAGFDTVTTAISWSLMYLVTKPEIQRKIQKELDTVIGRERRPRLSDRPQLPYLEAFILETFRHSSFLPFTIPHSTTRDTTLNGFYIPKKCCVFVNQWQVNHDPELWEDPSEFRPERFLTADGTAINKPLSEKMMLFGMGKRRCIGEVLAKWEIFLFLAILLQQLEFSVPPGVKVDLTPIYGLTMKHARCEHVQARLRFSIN
Protocol: as §1

Cytochrome P450 2C9 = Cytochrome P450 2C9 (Homo sapiens, UniProt P11712)
Sequence of Cytochrome P450 2C9 (P11712 whole entry): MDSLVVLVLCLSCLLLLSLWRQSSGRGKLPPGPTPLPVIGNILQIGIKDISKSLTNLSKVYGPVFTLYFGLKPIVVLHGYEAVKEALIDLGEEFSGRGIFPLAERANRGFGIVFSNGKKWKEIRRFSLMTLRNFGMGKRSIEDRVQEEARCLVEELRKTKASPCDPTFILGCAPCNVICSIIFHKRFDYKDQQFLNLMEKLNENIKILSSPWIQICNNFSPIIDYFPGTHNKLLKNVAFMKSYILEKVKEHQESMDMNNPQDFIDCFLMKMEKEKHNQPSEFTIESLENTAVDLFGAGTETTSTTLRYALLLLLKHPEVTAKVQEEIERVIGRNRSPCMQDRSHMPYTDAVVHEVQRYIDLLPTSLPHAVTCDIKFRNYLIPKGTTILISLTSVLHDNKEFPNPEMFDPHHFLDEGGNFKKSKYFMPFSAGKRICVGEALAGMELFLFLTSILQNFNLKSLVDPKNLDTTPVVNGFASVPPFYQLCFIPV
Protocol: as §1

Sequence of Cytochrome P450 2C19 (P33261 whole entry): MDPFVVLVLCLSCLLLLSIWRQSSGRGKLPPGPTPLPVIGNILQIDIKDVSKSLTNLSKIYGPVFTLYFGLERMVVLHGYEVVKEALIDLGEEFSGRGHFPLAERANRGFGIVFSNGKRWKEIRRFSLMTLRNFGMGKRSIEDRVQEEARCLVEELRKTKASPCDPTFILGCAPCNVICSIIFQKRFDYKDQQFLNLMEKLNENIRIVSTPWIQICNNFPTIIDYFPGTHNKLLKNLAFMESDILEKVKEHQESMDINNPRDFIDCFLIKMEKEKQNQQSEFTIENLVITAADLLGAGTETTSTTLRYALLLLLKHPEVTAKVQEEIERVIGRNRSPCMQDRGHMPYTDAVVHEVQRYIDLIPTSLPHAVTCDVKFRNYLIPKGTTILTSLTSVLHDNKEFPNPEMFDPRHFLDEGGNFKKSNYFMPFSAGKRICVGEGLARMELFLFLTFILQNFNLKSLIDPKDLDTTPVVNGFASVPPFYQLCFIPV

Work on `CC(C)(CO)[C@@H](O)C(=O)n1ccc(C(=O)N2CCCC2)c1` [US20250042850, Compound 10] yielded an IC50 (Cytochrome P450 2C19) of 62.6 µM, an IC50 (Cytochrome P450 1A2) of over 100 µM and an IC50 (Cytochrome P450 2C9) of over 100 µM.
